Source: publication PMC9324412 (Viruses, 2022)

Key:
[1] = tested on: HIV-1 pNL4-3 A128T IN mutant; assay: Late-stage single replication cycle antiviral assay, A128T IN mutant virus; type: cell-based; conditions: Human immunodeficiency virus 1, TZM-bl, read-out: A128T-IC50 (antiviral activity)
[2] = tested on: HIV-1 pNL4-3 WT; assay: Late-stage single replication cycle antiviral assay, WT virus; type: cell-based; conditions: Human immunodeficiency virus 1, TZM-bl, read-out: WT-IC50 (antiviral activity)

Row | Structure (SMILES) | IC50 [1] | IC50 [2]
1 | Cc1nc2ccccc2c(-c2ccc3c(c2)OCCO3)c1C(OC(C)(C)C)C(=O)O (stereo not drawn) [Compound 2] | 1.1 ± 0.2 µM | 0.7 ± 0.1 µM
2 | Cc1nc2c(Br)cccc2c(-c2ccc3c(c2)OCCO3)c1C(OC(C)(C)C)C(=O)O (stereo not drawn) [Compound 16ba] | 0.3 ± 0.1 µM | 0.6 ± 0.1 µM
3 | Cc1nc2ccc(Br)cc2c(-c2ccc3c(c2)OCCO3)c1C(OC(C)(C)C)C(=O)O (stereo not drawn) [Compound 17] | 10.2 ± 2.5 µM | 0.3 ± 0.1 µM
